Laboratory results: patent US9796706B2, “Inhibitors of Jun N-terminal kinase” (IMAGO PHARMACEUTICALS, INC., priority 2009, dated 2017)

How the values were obtained:
JNK3 = JNK3 (Homo sapiens (Human), UniProt P53779); assay: JNK3 TR-FRET kinase assay (Example 14); type: biochemical; details: procedures of Example 14 (TR-FRET)
Procedure, shortened: (§1)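 Two TR-FRET formats were used for each JNK isoform. In the direct one, preactivated aJNK phosphorylated EPIW-1 at about 1 mM final ATP (RT, 15 min). Both were EDTA-quenched and read by HTRF.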

JNK1 = JNK1 (Homo sapiens (Human), UniProt P45983); assay: JNK1 TR-FRET kinase assay (Example 14); type: biochemical; details: procedures of Example 14 (TR-FRET)
Procedure, shortened: as §1

JNK2 = JNK2 (Homo sapiens (Human), UniProt P45984); assay: JNK2 TR-FRET kinase assay (Example 14); type: biochemical; details: procedures of Example 14 (TR-FRET)
Procedure, shortened: as §1

[1] = system: phosphorylated c-jun (p-cjun); assay: Inhibition of kainic acid induced phospho-cJun upregulation in mice hippocampi; type: in vivo
Procedure: Female, FVB/N mice (Taconic) were treated by oral gavage (PO) with one 300 mg/kg dose of N-(4-chloro-3-(1H-1,2,4-triazol-5-yl)thiophen-2-yl)-2-(isoquinolin-5-yl)acetamide or vehicle (0.9% saline) at a 5 ml/kg dose volume. Control animals were dosed with vehicle. Thirty minutes later animals were treated interperitoneally with 25 mg/kg of kainic acid or saline at a 10 ml/kg dose volume. Kainic acid was formulated in 0.9% saline. Four hours after kainic acid administration animals were euthanized by carbon dioxide and were transcardially perfused with 0.9% saline. Brains were removed, and separated into left and right hemispheres. The hippocampus was dissected from the right hemisphere, frozen on dry ice and kept at −80° C. until used for quantitation of p-cjun levels.
Preweighed hippocampus tissues were homogenized in cold cell extraction buffer (CEB) containing 1% Triton X-100, 0.1% SDS, 0.5% deoxycholate, 20 mM Na4P2O7, 2 mM Na3VO4, 0.1% SDS and protease inhibitors (PI, 2 mg/mL aprotinin and 1 mg/mL leupeptin) at a ratio of 9:1 CEB to wet tissue weight. Homogenized samples were analyzed using PathScan Phospho-c-Jun (Ser63) Sandwich ELISA Kit II from Cell Signaling Technology. Samples were diluted 1:10 in sample diluent provided in the kit. An 8-point standard curve was prepared by diluting a 10 ng/mL phos-c-Jun standard 1:3 in 10% CEB/PI in sample diluent. Samples and standards were added at 100 μL per well to prewetted ELISA plates which contain a phos-c-jun (ser63)-specific rabbit monoclonal capture antibody and incubated overnight at 4° C. The plate was then allowed to warm to room temperature and washed three times using TBS+0.05% Tween 20 (TTBS). To each well were added 100 μL of a mouse monoclonal c-Jun detection antibody and the plate was incubated at 37° C. for 1 hour. The plate was washed three times in TTBS, then 100 μL per well of an anti-mouse IgG HRP-linked antibody was added. […] The colorimetric reaction was read using a Molecular Devices Spectramax plate reader and sample data was calculated from the standard curve fit to a 4-parameter function.

Sequence of JNK2 (P45984 whole entry, species assumed): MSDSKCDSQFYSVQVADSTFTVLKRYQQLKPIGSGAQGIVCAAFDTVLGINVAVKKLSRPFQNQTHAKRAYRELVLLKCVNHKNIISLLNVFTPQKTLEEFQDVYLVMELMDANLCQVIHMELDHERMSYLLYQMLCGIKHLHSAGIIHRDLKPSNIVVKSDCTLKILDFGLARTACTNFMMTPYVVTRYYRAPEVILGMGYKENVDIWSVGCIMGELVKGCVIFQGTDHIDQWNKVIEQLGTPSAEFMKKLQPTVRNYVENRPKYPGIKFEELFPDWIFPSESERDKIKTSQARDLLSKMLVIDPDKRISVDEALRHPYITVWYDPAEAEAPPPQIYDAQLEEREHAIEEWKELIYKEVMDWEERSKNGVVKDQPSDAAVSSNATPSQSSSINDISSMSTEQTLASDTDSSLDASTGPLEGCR
Sequence of JNK1 (P45983 other isoform, or with tags, fused parts or gaps isoform P45983-2, species assumed): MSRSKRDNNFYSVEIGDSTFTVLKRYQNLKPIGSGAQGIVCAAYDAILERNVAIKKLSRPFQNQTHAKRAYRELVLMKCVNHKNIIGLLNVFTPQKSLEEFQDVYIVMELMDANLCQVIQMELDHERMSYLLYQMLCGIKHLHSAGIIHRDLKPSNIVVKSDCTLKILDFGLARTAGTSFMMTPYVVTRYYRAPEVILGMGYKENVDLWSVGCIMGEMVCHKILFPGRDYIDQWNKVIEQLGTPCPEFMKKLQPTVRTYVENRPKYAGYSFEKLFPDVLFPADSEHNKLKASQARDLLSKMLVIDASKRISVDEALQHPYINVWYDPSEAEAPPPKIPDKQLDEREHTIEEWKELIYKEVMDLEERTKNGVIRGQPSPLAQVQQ
Sequence of JNK3 (P53779 whole entry, species assumed, canonical isoform): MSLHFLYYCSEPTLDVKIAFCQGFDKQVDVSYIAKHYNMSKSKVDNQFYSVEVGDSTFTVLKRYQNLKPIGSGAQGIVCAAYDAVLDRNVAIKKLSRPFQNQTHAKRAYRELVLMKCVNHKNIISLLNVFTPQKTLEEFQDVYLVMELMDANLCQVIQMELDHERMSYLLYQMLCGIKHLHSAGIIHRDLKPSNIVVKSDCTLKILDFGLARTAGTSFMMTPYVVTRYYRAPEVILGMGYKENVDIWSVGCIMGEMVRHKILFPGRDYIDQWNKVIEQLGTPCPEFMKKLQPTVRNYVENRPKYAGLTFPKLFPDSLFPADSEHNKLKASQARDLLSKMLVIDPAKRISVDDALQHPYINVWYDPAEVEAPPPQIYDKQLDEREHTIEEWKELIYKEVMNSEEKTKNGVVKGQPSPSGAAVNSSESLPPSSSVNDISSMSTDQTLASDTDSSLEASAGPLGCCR

Structure (SMILES) | IC50 (JNK3) [nM] | IC50 (JNK1) [nM] | IC50 (JNK2) [nM] | reduction of p-cjun in the hippocampus ([1]; FVB mice, 300 mg/kg, 4 hours after treatment with kainic acid, statistically significant (unpaired t-test)) [%] | p-cJun Mean ([1]; female FVB/N mice, 300 mg/kg PO 30 min before 25 mg/kg kainic acid i.p., hippocampus 4 h after kainic acid) [ng/mL] | p-cJun % of Vehicle ([1]; female FVB/N mice, 300 mg/kg PO, hippocampus 4 h after kainic acid, relative to kainic acid + vehicle group) [%]
O=C(Cc1cccc2cnccc12)Nc1scc(Cl)c1-c1ncn[nH]1 [N-(4-chloro-3-(1H-1,2,4-triazol-5-yl)thiophen-2-yl)-2-(isoquinolin-5-yl)acetamide] | < 100 | < 100 | < 100 | 51 | 0.927 | 49.2
N#Cc1csc(NC(=O)Cn2c(=O)ccc3cc(C(F)(F)F)ccc32)c1-n1ccnn1 [N-(4-cyano-3-(1H-1,2,3-triazol-1-yl)thiophen-2-yl)-2-(2-oxo-6-(trifluoromethyl)quinolin-1(2H)-yl)acetamide] | 100 to 10000 | 100 to 10000 | 100 to 10000 |  |  | 
N#Cc1csc(NC(=O)Cn2c(=O)ccc3cc(C(F)(F)F)ccc32)c1-c1ncco1 [N-(4-cyano-3-(oxazol-2-yl)thiophen-2-yl)-2-(2-oxo-6-(trifluoromethyl)quinolin-1(2H)-yl)acetamide] | < 100 | < 100 | < 100 |  |  | 
N#Cc1csc(NC(=O)Cc2cccc3ncccc23)c1-c1cnccn1 [N-(4-cyano-3-(pyrazin-2-yl)thiophen-2-yl)-2-(quinolin-5-yl)acetamide] | < 100 | < 100 | 100 to 10000 |  |  | 
N#Cc1csc(NC(=O)CN2C(=O)CCc3ncccc32)c1-c1nccs1 [N-(4-cyano-3-(thiazol-2-yl)thiophen-2-yl)-2-(2-oxo-3,4-dihydro-1,5-naphthyridin-1(2H)-yl)acetamide] | < 100 | < 100 | < 100 |  |  | 
N#Cc1csc(NC(=O)Cn2c(=O)ccc3cc(C(F)(F)F)ccc32)c1-c1nccs1 [N-(4-cyano-3-(thiazol-2-yl)thiophen-2-yl)-2-(2-oxo-6-(trifluoromethyl)quinolin-1(2H)-yl)acetamide] | < 100 | < 100 | < 100 |  |  | 
N#Cc1csc(NC(=O)Cn2c(=O)ccc3cc(C(F)(F)F)ccc32)c1-c1cscn1 [N-(4-cyano-3-(thiazol-4-yl)thiophen-2-yl)-2-(2-oxo-6-(trifluoromethyl)quinolin-1(2H)-yl)acetamide] | < 100 | < 100 | < 100 |  |  | 
N#Cc1csc(NC(=O)Cn2c(=O)ccc3cc(C(F)(F)F)ccc32)c1-c1cncs1 [N-(4-cyano-3-(thiazol-5-yl)thiophen-2-yl)-2-(2-oxo-6-(trifluoromethyl)quinolin-1(2H)-yl)acetamide] | 100 to 10000 | 100 to 10000 | 100 to 10000 |  |  | 
Cc1csc(NC(=O)Cc2ccc(OCCCN3CCCCC3)cc2)c1-c1ncn[nH]1 [N-(4-methyl-3-(1H-1,2,4-triazol-5-yl)thiophen-2-yl)-2-(4-(3-(piperidin-1-yl)propoxy)phenyl)acetamide] | 100 to 10000 | 100 to 10000 | 100 to 10000 |  |  | 
Cc1csc(NC(=O)Cc2cccc3nccnc23)c1-c1ncn[nH]1 [N-(4-methyl-3-(1H-1,2,4-triazol-5-yl)thiophen-2-yl)-2-(quinoxalin-5-yl)acetamide] | 100 to 10000 | 100 to 10000 | 100 to 10000 |  |  | 
Cc1noc(-c2c(C)csc2NC(=O)Cc2cccc3ccccc23)n1 [N-(4-methyl-3-(3-methyl-1,2,4-oxadiazol-5-yl)thiophen-2-yl)-2-(naphthalen-1-yl)acetamide] | 100 to 10000 | 100 to 10000 | 100 to 10000 |  |  | 
Cc1n[nH]c(-c2c(C)csc2NC(=O)CN2C(=O)CCc3ccccc32)n1 [N-(4-methyl-3-(3-methyl-1H-1,2,4-triazol-5-yl)thiophen-2-yl)-2-(2-oxo-3,4-dihydroquinolin-1(2H)-yl)acetamide] | < 100 | < 100 | < 100 |  |  | 
Cc1n[nH]c(-c2c(C)csc2NC(=O)Cc2ccc(OCCCN3CCCCC3)cc2)n1 [N-(4-methyl-3-(3-methyl-1H-1,2,4-triazol-5-yl)thiophen-2-yl)-2-(4-(3-(piperidin-1-yl)propoxy)phenyl)acetamide] | 100 to 10000 | 100 to 10000 | 100 to 10000 |  |  | 
Cc1n[nH]c(-c2c(C)csc2NC(=O)Cc2cccc3ncccc23)n1 [N-(4-methyl-3-(3-methyl-1H-1,2,4-triazol-5-yl)thiophen-2-yl)-2-(quinolin-5-yl)acetamide] | < 100 | < 100 | 100 to 10000 |  |  | 
Cc1n[nH]c(-c2c(C)csc2NC(=O)Cc2cccc3nccnc23)n1 [N-(4-methyl-3-(3-methyl-1H-1,2,4-triazol-5-yl)thiophen-2-yl)-2-(quinoxalin-5-yl)acetamide] | 100 to 10000 | 100 to 10000 | 100 to 10000 |  |  | 
O=C(Cn1c(=O)ccc2cc(C(F)(F)F)ccc21)Nc1sc(Cl)cc1-c1ncn[nH]1 [N-(5-chloro-3-(1H-1,2,4-triazol-5-yl)thiophen-2-yl)-2-(2-oxo-6-(trifluoromethyl)quinolin-1(2H)-yl)acetamide] | 100 to 10000 | < 100 | 100 to 10000 |  |  | 

Now from value to compound, other results behind:

IC50 (JNK3) [nM] | IC50 (JNK1) [nM] | IC50 (JNK2) [nM] | Structure (SMILES) | reduction of p-cjun in the hippocampus ([1]; FVB mice, 300 mg/kg, 4 hours after treatment with kainic acid, statistically significant (unpaired t-test)) [%] | p-cJun Mean ([1]; female FVB/N mice, 300 mg/kg PO 30 min before 25 mg/kg kainic acid i.p., hippocampus 4 h after kainic acid) [ng/mL] | p-cJun % of Vehicle ([1]; female FVB/N mice, 300 mg/kg PO, hippocampus 4 h after kainic acid, relative to kainic acid + vehicle group) [%]
< 100 | < 100 | < 100 | O=C(CN1C(=O)CCc2ncccc21)Nc1scc(Cl)c1-c1nccs1 [N-(4-chloro-3-(thiazol-2-yl)thiophen-2-yl)-2-(2-oxo-3,4-dihydro-1,5-naphthyridin-1(2H)-yl)acetamide] |  |  | 
< 100 | < 100 | < 100 | Cn1cnc(-c2c(C#N)csc2NC(=O)CN2C(=O)CCc3ncccc32)n1 [N-(4-cyano-3-(1-methyl-1H-1,2,4-triazol-3-yl)thiophen-2-yl)-2-(2-oxo-3,4-dihydro-1,5-naphthyridin-1(2H)-yl)acetamide] |  |  | 
< 100 | < 100 | < 100 | Cn1cnc(-c2c(C#N)csc2NC(=O)Cc2cccc3ncccc23)n1 [N-(4-cyano-3-(1-methyl-1H-1,2,4-triazol-3-yl)thiophen-2-yl)-2-(quinolin-5-yl)acetamide] |  |  | 
< 100 | < 100 | < 100 | N#Cc1csc(NC(=O)CN2C(=O)CCc3ncccc32)c1-c1nc[nH]n1 [N-(4-cyano-3-(1H-1,2,4-triazol-3-yl)thiophen-2-yl)-2-(2-oxo-3,4-dihydro-1,5-naphthyridin-1(2H)-yl)acetamide] |  |  | 
< 100 | < 100 | < 100 | N#Cc1csc(NC(=O)CN2C(=O)CCc3ccccc32)c1-c1ncn[nH]1 [N-(4-cyano-3-(1H-1,2,4-triazol-5-yl)thiophen-2-yl)-2-(2-oxo-3,4-dihydroquinolin-1(2H)-yl)acetamide] |  |  | 
< 100 | < 100 | < 100 | N#Cc1csc(NC(=O)Cc2cccc3cnccc23)c1-c1ncn[nH]1 [N-(4-cyano-3-(1H-1,2,4-triazol-5-yl)thiophen-2-yl)-2-(isoquinolin-5-yl)acetamide] |  |  | 
< 100 | < 100 | < 100 | N#Cc1csc(NC(=O)Cn2c(=O)ccc3cc(C(F)(F)F)ccc32)c1-n1nccn1 [N-(4-cyano-3-(2H-1,2,3-triazol-2-yl)thiophen-2-yl)-2-(2-oxo-6-(trifluoromethyl)quinolin-1(2H)-yl)acetamide] |  |  | 
< 100 | < 100 | < 100 | N#Cc1csc(NC(=O)Cc2cccc3ncccc23)c1-c1nnc[nH]1 [N-(4-cyano-3-(4H-1,2,4-triazol-3-yl)thiophen-2-yl)-2-(quinolin-5-yl)acetamide] |  |  | 
